Square brackets hold non-standard residues; d marks the D form. Peptide text beside a SMILES is read from it. * marks the point of attachment. Sta = CC(C)C[C@H](N)[C@@H](O)CC(=O)O; Isovaleryl = CC(C)CC(=O)*
What was measured:
[1] = tested on: Lice (L) and Plutella (P) eggs; details: in vivo
[2] = tested on: Lice (L) and Plutella (P) eggs; assay: whole plant or invertebrate; details: read-out: Ovicidal activity %
[3] = tested on: Helicoverpa armigera eggs; assay: Egg hatching of Helicoverpa armigera; details: 1% diethoxyglycol in water (FIG. 6)
Experimental: A range of concentrations were made up in water and the eggs placed in the solutions for approximately 2-10 seconds. The eggs which had been laid on cloth were then blotted dry and placed in an incubator at 26° C. for 3-4 days until hatch. Hatch rates were then assessed compared to a water only treated control (FIG. 5).
The compound was dissolved in 100% diethoxyglycol and diluted to a final concentration of 1% in water.
Several hundred Helicoverpa armigera eggs (Tatura×Toowoomba strains) were collected, that had been laid on fine mesh cloth over a 24 hour period.
Batches of Helicoverpa eggs were exposed to a specific inhibitor solution for between 2-10 seconds the excess solution drained by blotting with dry tissue paper. The egg masses were then placed in a humid box at 25 degrees until egg hatch. Control eggs were exposed to absolute methanol as described above. At day 6 post laying the eggs were assessed from the different treatments and the percentage of egg hatch determined relative to the control as shown in Table 12.
Batches of Helicoverpa eggs were then exposed to a specific inhibitor solution for between 2-10 seconds the excess solution drained by blotting with dry tissue paper. The egg masses were then placed in a humid box at 25° C. until egg hatch. Control eggs were exposed to absolute methanol as described above. At day 6 post laying the eggs were assessed from the different treatments and the percentage of egg hatch determined relative to the control as shown in Table 13.

H. contortus eggs = assay: Egg hatching in Haemonchus contortus; type: in vivo
Experimental: In an attempt to improve control of H. contortus the effects of the compound 5,5′-dimethyl-2,2′-dipyridyl was examined on H. contortus eggs. Eggs were recovered from the faeces of infected sheep using a standard sucrose floatation method. The eggs were corrected to a density of approximately 2,500 eggs per mL and were then exposed to varying concentrations of compound and incubated for 48 hours at 25° C. The eggs were then examined to determine the ovicidal efficacy of the compound in comparison to untreated control and a solvent only control.
In addition, the ovicidal efficacy of the compound 2-acetyl-1-tetralone was examined against H. contortus (FIG. 10). The same protocol was used as described for 5,5′-dimethyl-2,2′-dipyridyl.

Plutella xylostella eggs [4] = assay: whole plant or invertebrate; type: in vivo; details: for ovicidal efficacy against Plutella: 1% diethoxyglycol (FIG. 7); for inhibition of Plutella egg hatching: 1% diethoxyglycol; for Number hatched / Number unhatched: Table 17, eggs laid on cloth; for % Inhibition: Table 17, relative to control (1% diethoxyglycol)
Experimental: The ovicidal efficacy of 2-acetyl-1-tetralone was also tested against Plutella eggs.

Plutella xylostella eggs [5] = assay: Glass house ovicidal test on sprayed cabbage plants; type: in vivo; details: 10 eggs per cabbage plant, one value per plant
Text: A number of treatments and replicates were set up in the glass house using young cabbage plants that were at the 4-5 leaf stage. Plutella xylostella eggs were laid by gravid females on the leaves such that each plant contained 10 eggs. The plants were sprayed with a commercial ovicide or using the compounds 5,5′-dimethyl-2,2′-dipyridyl and 5,5′diethyl-2,2′-dipyridyl in a formulation at the rate of 200 L/Ha using a track sprayer. Controls of water only or Placebo only were also included. The ovicidal efficacy was monitored over a number of days an the number of eggs hatching and caterpillar larvae emerging recorded (Table 22).

[6] = tested on: proteases in egg shell washings (ESW) of lice eggs; assay: Gelatin substrate SDS-PAGE of lice egg shell washings (ESW) incubated with protease inhibitors; type: biochemical, Pediculus humanus humanus; details: gel strips incubated with inhibitor: PMSF 5 mM, 1,10-phenanthroline 10 mM, EDTA 10 mM, pepstatin 5 μM, E-64 10 μM
Experimental: Within 12 hours of hatching 50 body lice eggs (Pediculus humanus humanus) were removed from the hair and placed in a 1 mL eppendorf tube. 20 μL of distilled water was added to the unhatched eggs and the preparation incubated for 30 minutes at 32° C. The 20 μL was recovered, freeze dried and stored at −70° C. This sample was referred to as sample 1. A number of other samples were also collected as described. Sample 2 was collected by removing the unhatched louse eggs from four hairs that were approximately 3 cm long, cutting the hair into 0.5 cm lengths, and placing them into a microfuge tube containing 20 μl of distilled water and incubating at 32° C. for 30 minutes. Sample 3 was collected as for sample 2, but the hair was placed in a tube containing 10 mL of 1% sodium hypochlorite for 1 minute followed by five 1 minute washes in 25 mL of distilled water to remove the sodium hypochlorite before being incubated in a microfuge tube containing 20 μl of distilled water and incubated as for Sample 2. Sample 4 was collected from unhatched eggs which were removed from the hair and washed with 1% sodium hypochlorite and incubated in 20 μl of distilled water in the same manner as the hair in Sample 3. Finally, Sample 5 was collected from eggs that were within 24 hrs of hatching which were washed with 1% sodium hypochlorite, then returned to the incubator at 32° C. until they hatched, the empty egg shells collected 0-2 hrs after egg-hatching, placed in a 1 mL microfuge tube containing 20 μl of distilled water and incubated as for Samples 1-4. For all samples 1-5 the 20 μl of fluid was recovered, freeze-dried and stored at −70° C. The washings recovered from these freshly hatched egg shells are referred to as egg-shell-washings (ESWs). In order to look for the presence of proteases present in these different samples, the freeze-dried samples were resuspended in 15 μL of non-reducing SDS sample buffer, centrifuged at 10,000 g for 2 minutes and the entire 15 μL loaded on to 10% gelatine substrate SDS-PAGE gels. Gels were run at 4° C. for 10 minutes at 10 mA followed by a further 25 minutes at 15 mA per gel. They were then incubated for 2×20 minutes in a 2.5% Triton-X 100 solution followed by a three hour incubation in 0.1M Tris/HCl containing 1 mM CaCl2 pH 8.0. Activity was detected as clear areas on the gel the result of protease activity degrading the gelatine within the gel.
Protease activity in the ESWs from louse eggs was also examined using two-dimensional gel electrophoresis. It was necessary to collect large numbers of freshly hatched egg shells. Following egglaying onto pieces of cloth, adult female lice were removed and the cloth with the eggs washed with 1% sodium hypochlorite as for collection of ESWs. The eggs were then returned to the incubator and permitted to hatch. Typically 100 to 500 hatched egg shells were collected (0-2 hours post hatching), placed in a microfuge tube containing 200 μl of distilled water, incubated and sample treated as described above. For analysis, ESWs were resuspended in rehydration buffer (8 M Urea, 2% 3-[(3-cholamidopropyl) dimethylammonio]-1-propanesulfonate 2% Immobilised pH gradient buffer 3-10 (Amersham Phamacia Biotech, Uppsala, Sweden)) and used to rehydrate 7 cm Immobiline Dry strips pH 3-10 (Amersham Bioscience) overnight. Strips were transferred to the Multiphor II (Pharmacia, Sweden) apparatus, electrophoresed in the first dimension at 200 V for 1 min, increasing to 3,500 V over the next 90 min followed by 65 min at 3,500 V, equilibrated (6 M urea, 30% glycerol, 50 mM Tris pH 8.8 and 2% SDS) and then run on a 10% SDS-PAGE gel containing 0.1% gelatin for the second dimension. The gel was then run and developed as previously described.
10% SDS-PAGE gelatine substrate gels were loaded with freeze dried egg shell washings from 100 lice eggs that had been resuspended in 50 μL of non-reducing sample buffer with samples run at 10 μL per lane. […]

[7] = 0-24 h, 10 mM (200 L/Ha), with wetting agent 0.3 ml/L

COc1ccc(C(=O)CC(=O)c2ccc(C(C)(C)C)cc2)cc1 [1-(4-tert-butylphenyl)-3-(4-methoxyphenyl)-propane-1,3-dione]
Logit calc pLD50 [1]: 0.7
Pref pLD50 [1]: <2
inhibition at 10000 µM [2]: 0%

CC(=O)C1CCc2ccccc2C1=O (stereo not drawn) [2-acetyl-1-tetralone]
ovicidal efficacy against H. armigera eggs ([3]; 1 mM): efficacy declining
ovicidal efficacy against H. armigera eggs ([3]; 2 mM): strong ovicidal efficacy
inhibition of H. contortus egg hatch (H. contortus eggs; 22 ug/mL (0.1 mM) (FIG. 10)): Partial inhibition of egg hatching
inhibition of H. contortus egg hatch (H. contortus eggs; 220 ug/mL (1 mM) and 110 ug/mL (0.5 mM) (FIG. 10)): highly effective at inhibiting egg hatch
ovicidal efficacy against Plutella (Plutella xylostella eggs [4]; 0.5 mM): no inhibition observed
ovicidal efficacy against Plutella (Plutella xylostella eggs [4]; 2 and 1 mM): strong ovicidal efficacy
inhibition at 1000 µM (Plutella xylostella eggs [4]; Plutella xylostella, Plutella (P), 1 mM, read-out: Ovicidal activity %): 100%
inhibition at 10000 µM (Plutella xylostella eggs [4]; Plutella xylostella, Plutella (P), 10 mM, read-out: Ovicidal activity %): 100%

CCc1ccc(-c2ccc(CC)cn2)nc1 [5,5′-diethyl-2,2′-dipyridyl]
# LARVAE EMERGED (Plutella xylostella eggs [5]; 0-24 h, 10 mM (200 L/Ha) No Wetting Agent): 0
# LARVAE EMERGED (Plutella xylostella eggs [5]; [7]): 0
inhibition of Plutella egg hatching (Plutella xylostella eggs [4]; 0.1 mM): Partial inhibition of egg hatching
inhibition of Plutella egg hatching (Plutella xylostella eggs [4]; 1 mM): complete inhibition
Number hatched (Plutella xylostella eggs [4]; 0.1 mM in 1% diethoxyglycol): 22
Number unhatched (Plutella xylostella eggs [4]; 0.1 mM in 1% diethoxyglycol): 34
Number hatched (Plutella xylostella eggs [4]; 1 mM in 1% diethoxyglycol): 0
Number unhatched (Plutella xylostella eggs [4]; 1 mM in 1% diethoxyglycol): 34
% Inhibition (Plutella xylostella eggs [4]; 0.1 mM): 31%
% Inhibition (Plutella xylostella eggs [4]; 1 mM): 100%

Cc1ccc(-c2ccc(C)cn2)nc1 [5,5′dimethyl-2,2′-dipyridyl]
# LARVAE EMERGED (Plutella xylostella eggs [5]; [7]): 0
# LARVAE EMERGED (Plutella xylostella eggs [5]; 0-24 h, 20 mM (200 L/Ha), with wetting agent 0.3 ml/L): 0
# LARVAE EMERGED (Plutella xylostella eggs [5]; 24-48 h, 10 mM (200 L/Ha), with wetting agent 0.3 ml/L): 0
# LARVAE EMERGED (Plutella xylostella eggs [5]; 24-48 h, 20 mM (200 L/Ha), with wetting agent 0.3 ml/L): 0
# LARVAE EMERGED (Plutella xylostella eggs [5]; 48-72 h, 20 mM (200 L/Ha), with wetting agent 0.3 ml/L): 0

CC(C)C[C@H](NC(=O)[C@H]1O[C@@H]1C(=O)O)C(=O)NCCCCN=C(N)N [E-64]
protease activity of ESW on gelatin SDS-PAGE compared to untreated controls [6]: no apparent reduction in protease activity

O=C(O)CN(CCN(CC(=O)O)CC(=O)O)CC(=O)O [EDTA, ethylenediamine tetraacetic acid]
protease activity of ESW on gelatin SDS-PAGE compared to untreated controls [6]: reduction in protease activity

O=S(=O)(F)Cc1ccccc1 [PMSF]
protease activity of ESW on gelatin SDS-PAGE compared to untreated controls [6]: no apparent reduction in protease activity

CC(C)CC(=O)N[C@H](C(=O)N[C@H](C(=O)N[C@@H](CC(C)C)[C@@H](O)CC(=O)N[C@@H](C)C(=O)N[C@@H](CC(C)C)[C@@H](O)CC(=O)O)C(C)C)C(C)C [pepstatin] (Isovaleryl-VV[Sta]A[Sta]-OH)
protease activity of ESW on gelatin SDS-PAGE compared to untreated controls [6]: no apparent reduction in protease activity
